From PubChem BioAssay AID504539 (Broad Institute, 2011) come the findings set out here.

Bounds are passed on as bounds.

In this experiment the test system is Cell-based prion protein 5' UTR reporter, plate reader. Nature of the experiment: prion protein 5' UTR mRNA inhibitors – cell-based, plate reader, cherry-picked samples, dose response (AID 504539).
As usually defined, the AC50 is the midpoint of the concentration-response curve, whichever way the signal moves. For `c1cc2c(cc1C1=NNC(=NC3CC3)SC1)OCCO2`, the half-maximal activity concentration (AC50) is 189 nM.
Regarding `CCC(C)(O)C(=O)OC1C(=O)OC2CC3C(C)=CC(=O)C(O)C3(C)C3C4(O)OCC23C1C(C)C4O` (centres undefined), the AC50 was 178 nM.
The result for `COc1cc2c(c(OC)c1OC)-c1ccc(O)c(=O)cc1C(NC(C)=O)CC2` (centres undefined) reads 160 nM; that for `O=C1/C(=C\c2ccc([N+](=O)[O-])cc2)CS(=O)(=O)C/C1=C/c1ccc([N+](=O)[O-])cc1`, 2060 nM.
For `CC1CCCC=CC2CC(OC(=O)CN(C)C)CC2C(O)C=CC(=O)O1` (centres undefined), the concentration at half-maximal activity (AC50) was 126 nM.
Next, `Cc1ccc(/C=C2\SC(=S)N(CCCC(=O)NNC(=O)c3ccccc3O)C2=O)cc1`: 428 nM; `O=C(NNC(=O)c1ccccc1O)c1ccccc1O`: 234 nM.
With `Cc1ccc(-c2nc(-c3ccccn3)no2)cc1Cl`, the AC50 was 351 nM.
For `O=c1c2ccccc2sc2ccc(C#CC3(O)CCCCC3)cc12`, the AC50 was below 38 nM.
With `Cc1ccc(C(=O)Nc2cc3ccccc3oc2=O)cc1`, the half-maximal activity concentration (AC50) is 143 nM.
The result for `O=c1c2ccccc2oc2cc(C#CC3(O)CCCCC3)ccc12` reads 1840 nM.
With `Cc1ccc(OCC(=O)c2cc(C)n(-c3ccccc3)c2C)c([N+](=O)[O-])n1`, the AC50 is 3270 nM.
`Cc1cc(C=C2C(=O)c3ccccc3C2=O)c(C)n1-c1ccccc1`: the concentration at half-maximal activity (AC50) is 809 nM.
Consider `CCOc1ccccc1C1CC(=O)Nc2cc3c(cc21)OCCO3` (centres undefined), for which the half-maximal activity concentration (AC50) is 3820 nM.
Next, `CCc1ccn2cc(-c3ccc4c(c3)OCO4)nc2c1`: 384 nM.
Next, `O=C(Nc1nccs1)c1cc2c(s1)CCCCC2`: 128 nM; `COc1cc(C2c3cc4c(cc3OC(NNC(N)=O)C2C)OCO4)cc(OC)c1OC` (centres undefined): 822 nM.
Next, `CCC1CN2CCc3cc(OC)c(OC)cc3C2CC1CC1NCCc2c1[nH]c1ccc(O)cc21` (centres undefined): 216 nM; `CCN(CC)c1ccc(-c2nn3c(-c4n[nH]c5c4CCC5)nnc3s2)cc1`: 986 nM; `COc1cc(C(=O)N2CCN(c3cc(Cl)ccc3Cl)CC2)cc(OC)c1OC`: 1120 nM.
As to `O=C(Nc1nc2cc3c(cc2s1)OCCO3)c1ccco1`, the AC50 is 234 nM.
For the molecule `O=C(CN1C(=O)c2ccccc2S1(=O)=O)N1CCc2ccccc21`, the half-maximal activity concentration (AC50) is 582 nM.
Take `Cc1ccc(-n2[nH]c(=O)c(-c3ccccn3)c2C)cc1`: the AC50 is 368 nM.
Next, `COc1cccc(N2CCN(C(=O)c3ccc(CS(=O)c4ccccc4C)o3)CC2)c1` (centres undefined): 1380 nM.
Next, `O=C(CCCc1ccccc1)c1ccc2c(c1)OCCO2`: 344 nM; `CCC(C)Cn1c(O)cc2nn(-c3nc4ccccc4s3)c(=O)c-2c1C` (centres undefined): 62 nM; `CC1CCN(c2ccc(-c3cccc(NC(=O)C(F)(F)F)c3)nn2)CC1`: 194 nM.
As for `COc1ccc(-n2ncc3c(N(C)C4CCCCC4)ncnc32)cc1`, the AC50 is 1520 nM.
As for `Cc1cc(C(=O)CN2C(=O)c3ccccc3S2(=O)=O)c(C)n1CC1CCCO1` (centres undefined), the AC50 was 271 nM.
As for `COc1cc(-c2noc(C)c2/C=C/c2cccc([N+](=O)[O-])c2)cc(OC)c1OC`, the AC50 is 2540 nM.
Consider `Cc1cc(/C=N/Nc2ncnc(N)c2[N+](=O)[O-])c(C)n1-c1ccccc1`, for which the concentration at half-maximal activity (AC50) was 636 nM.
Take `CC(C)(C)C(=O)Nc1cc2nn(-c3ccccc3)nc2cc1Cl`: the half-maximal activity concentration (AC50) is below 38 nM.
For the molecule `Cn1cccc1/C=C1\SC(=Nc2ccc(O)cc2)NC1=O`, the half-maximal activity concentration (AC50) was 630 nM.
Regarding `COc1ccc(C(=O)Nc2ccccc2C(=O)N/N=C/c2ccc(O)c(OC)c2)cc1`, the half-maximal activity concentration (AC50) was 1400 nM.
Consider `COC1C(C)OC(OC2CC(C)(O)Cc3cc4c(c(O)c32)C(=O)c2c(O)cc3c(c2C4=O)OC2OC3(C)C(O)C(N(C)C)C2O)C(OC)C1(C)OC` (centres undefined), for which the half-maximal activity concentration (AC50) is 118 nM.
For the molecule `Cc1cc(C(=O)COC(=O)c2ccccc2O)c(C)n1Cc1cccs1`, the concentration at half-maximal activity (AC50) was 83 nM.
For the molecule `Cc1nn(-c2ccccc2Cl)c(Cl)c1/C=N/Nc1nc2ccccc2s1`, the AC50 is below 38 nM.
As to `COc1ccccc1N1CCN(C(=O)c2cc(=O)c3cc(C)cc(C)c3o2)CC1`, the AC50 was 248 nM.
For `O=C(CN1C(=O)c2ccccc2S1(=O)=O)c1ccc2c(c1)OCCCO2`, the concentration at half-maximal activity (AC50) was 39 nM.
The result for `Nc1ncnc2c1ccn2[C@@H]1O[C@H](CO)[C@@H](O)[C@H]1O` reads 164 nM; that for `CCc1ccc(-c2cc(C(=O)Nn3cnnc3)c3ccccc3n2)cc1`, 510 nM; that for `Cc1cc(C(=O)COC(=O)c2ccccc2O)c(C)n1CC1CCCO1` (centres undefined), below 38 nM.
Regarding `COc1cccc(C(=O)O/N=C(\N)c2ccccn2)c1`, the AC50 is 448 nM.
The result for `CC1=C(C(=O)Nc2ccc(CC(=O)NCc3ccc(OC(C)C)cc3)cc2)SCCO1` reads 974 nM; that for `COc1ccc(N/C=C/C(=O)c2cc(OC)c(OC)c(OC)c2)cc1`, 2440 nM.
The result for `O=C(NC1CCCCC1)c1n[nH]c2c1CCCCC2` reads 759 nM.
As for `COc1ccc(OC)c(Nc2c3c(nc4ccccc24)CCC3)c1`, the AC50 was 1600 nM.
For `CN1CCN(c2ccc([N+](=O)[O-])c3no[n+]([O-])c23)CC1`, the AC50 is 2340 nM.
Next, `O=C(CN1C(=O)c2ccccc2S1(=O)=O)c1ccc(Cl)cc1Cl`: 181 nM.
`CC1(C)CC[C@]2(C(=O)n3ccnc3)CC[C@]3(C)[C@H](C(=O)C=C4[C@@]5(C)C=C(C#N)C(=O)C(C)(C)[C@@H]5CC[C@]43C)[C@@H]2C1`: the AC50 is 808 nM.
As to `CC12CCC(O)CC1CCC1C2CCC2(C)C(C3=CC(=O)OC3)CCC12O` (centres undefined), the half-maximal activity concentration (AC50) was 230 nM.
Turning to `O=C(Nc1ccc([N+](=O)[O-])cc1)C(=O)Nc1cccc(C(=O)O)c1`, the concentration at half-maximal activity (AC50) is 164 nM.
As for `CCCSc1ccc2nc(-c3ccccc3)cn2c1`, the concentration at half-maximal activity (AC50) was 487 nM.
With `Cc1ccc(-c2cc3c(N=O)c4ccccc4c-3n[nH]2)cc1`, the AC50 is 438 nM.
`COC(=O)Cc1[nH]n(-c2nc3ccccc3s2)c(=O)c1C(C)=Nc1ccc(OC)cc1`: the AC50 is 108 nM.
Take `CCSc1nc(-c2ccccc2)nc(C(Cl)Cl)n1`: the concentration at half-maximal activity (AC50) was 1060 nM.
`CC(=O)OC1CC(OC2C(O)CC(OC3C(O)CC(OC4CCC5(C)C(CCC6C5CC(O)C5(C)C(C7=CC(=O)OC7)CCC65O)C4)OC3C)OC2C)OC(C)C1OC1OC(CO)C(O)C(O)C1O` (centres undefined): the AC50 is 92 nM.
As for `CCN1C=CC(=C2C(=O)c3ccccc3C2=O)C=C1`, the AC50 was 89 nM.
As for `COC(=O)Cc1ccc(NC(=O)c2ccc(C(C)(C)C)cc2)cc1`, the concentration at half-maximal activity (AC50) was 414 nM.
Consider `Clc1ccc2nc(-c3ccccc3)nc(C(Cl)Cl)c2c1`, for which the AC50 was 885 nM.
For the molecule `CC(=O)OC1CC2(O)C3CCC4CC(O)CCC4(C)C3CCC2(C)C1C1=CC(=O)OC1` (centres undefined), the AC50 is 92 nM.
As to `COc1ccc(-n2ncc3c(N4CCCCC4)ncnc32)cc1`, the AC50 is 661 nM.
Take `COCCCN=C1NN=C(c2cc(C)n(Cc3ccco3)c2C)CS1`: the AC50 is 1130 nM.
As to `Cc1cc([N+](=O)[O-])c2ccccc2[n+]1[O-]`, the half-maximal activity concentration (AC50) is 256 nM.
For the molecule `O=C(O)c1cccc(-c2noc(-c3cccc(Cl)c3)n2)c1`, the half-maximal activity concentration (AC50) was 153 nM.
Regarding `C[C@H]1CCC/C=C/[C@@H]2C[C@H](O)C[C@H]2[C@@H](O)/C=C/C(=O)O1`, the AC50 is below 38 nM.
Next, `OCC1OC(n2ccc3c(NO)ncnc32)C(O)C1O` (centres undefined): 189 nM; `O=C(N/N=C/c1ccccc1)c1[nH]c2ccc(Br)cc2c1-c1ccccc1`: 460 nM.
For the molecule `COc1cccc2c1C(=O)c1c(O)c3c(c(O)c1C2=O)CC(O)(C(C)=O)CC3OC1CC(N(C)C)C(O)C(C)O1` (centres undefined), the AC50 is 165 nM.
For the molecule `CCC1=Nc2cc(C(=O)NCc3ccco3)ccc2Sc2ccc(C)cc21`, the AC50 is 652 nM.
As for `Cc1ccc2nc(NC(=O)c3ccccn3)sc2c1`, the AC50 was 220 nM.
The result for `Cc1cnc(NC(=O)c2ccc3c(c2)OCCO3)s1` reads 159 nM; that for `O=C(O)c1ccc(N/N=C/c2ccc3c(c2)OCO3)cc1`, 419 nM; that for `C[C@]12CC[C@H](O)C[C@H]1CC[C@@H]1[C@@H]2C[C@@H](O)[C@]2(C)[C@@H](C3=CC(=O)OC3)CC[C@]12O`, 374 nM.
In the case of `COc1ccc(CC2NCC(O)C2OC(C)=O)cc1` (centres undefined), the AC50 is 168 nM.
Turning to `CCN1CCN(Cc2ccc(NC(=O)c3ccc(C)c(NC(=O)c4cncc(-c5cccs5)c4)c3)cc2C(F)(F)F)CC1`, the AC50 is 156 nM.
The result for `O=C(O)CSCC(=O)Nc1ccc(C2CCCCC2)cc1` reads 1560 nM; that for `COc1ccc2[nH]c(-c3cccc(F)c3)cc(=O)c2c1`, 1550 nM.
Turning to `C[C@H]1CCC/C=C/C2C[C@H](O)CC2[C@H](O)/C=C/C(=O)O1` (some centres undefined), the half-maximal activity concentration (AC50) is 40 nM.
Regarding `CCCOc1ccc2cc(-c3ccccn3)c(=O)oc2c1`, the AC50 is 399 nM.
In the case of `CC(=O)OC1C(O)C(C)OC(OC2C(OC(=O)C3CCC4C(C3)OC3(CC(OC(=O)/C=C/c5ccccc5)C(C)CO3)C43CO3)OC(C)C(O)C2OC(C)=O)C1O` (centres undefined), the half-maximal activity concentration (AC50) is 104 nM.
Take `Cc1c(C(=O)N/N=C/c2ccc(Cl)cc2)[nH]c2ccc(Cl)cc12`: the half-maximal activity concentration (AC50) was 1090 nM.
Next, `Cc1ccc(-c2cc3c(nn2)-c2ccccc2C3=O)cc1`: 575 nM.
As for `O=C(Nc1nc2ccccc2[nH]1)c1ccccc1F`, the AC50 is 210 nM.
On to `Cc1ccccc1OCC(=O)Nc1cccc(C(=O)O)c1`, for which the concentration at half-maximal activity (AC50) is 422 nM.
In the case of `CCOC(=O)c1c(C)[nH]c(C(=O)N/N=C/c2ccc(Br)cc2)c1C`, the half-maximal activity concentration (AC50) was 378 nM.
In the case of `CCN(CC)c1ccc(/C=N/N=C(N)N)c(O)c1`, the AC50 is 1410 nM.
The result for `CC/C=C/CC(=O)N[C@@H](c1ccccc1)[C@@H](O)C(=O)O[C@H]1C[C@@]2(O)[C@@H](OC(=O)c3ccccc3)C3[C@](C)(C(=O)[C@H](OC(C)=O)C(=C1C)C2(C)C)[C@@H](O)C[C@H]1OC[C@@]31OC(C)=O` (some centres undefined) reads 368 nM; that for `CC(/C=C1\SC(=O)N(CCCC(=O)O)C1=O)=C\c1ccccc1`, 162 nM.
For the molecule `N#Cc1c(NC(=O)CSc2ncn[nH]2)sc2c1CCCCC2`, the AC50 is 82 nM.
For the molecule `COc1ccc(C2=Nn3c(nnc3-c3ccccc3OC)SC2)cc1OC`, the concentration at half-maximal activity (AC50) was 395 nM.
Take `CC(=O)OCC12CC(OC(=O)CC(C)C)C(C)=CC1OC1C(O)C(OC(C)=O)C2(C)C12CO2` (centres undefined): the AC50 is below 38 nM.
With `CCN1/C(=C\C=C\C2=[N+](CC)c3ccccc3C2(C)C)C(C)(C)c2ccccc21`, the AC50 was 924 nM.
The result for `COc1ccccc1NC(=O)c1oc2ccccc2c1NC(=O)c1cc(OC)c(OC)c(OC)c1` reads 537 nM.
